Data taken from the supplement of paper PMC5579334.

Tests used:
ST8814 [1] = test: relative IC50 (inflection point of fitted dose-response curve, CellTox-Green cytotoxicity, 72 h; top asymptote may be below 50%); higher = less potent
Procedure, shortened: (§1)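 MPNST cell lines and primary human Schwann cells were grown for 72 h at 37 °C in 384-well plates containing five 10-fold compound dilutions. CellTox-Green, added before seeding at a final 1:1000 dilution, gave fluorescence from DNA released by disrupted cells, and signals were scaled to vehicle and positive-control wells. Curves were fitted with a four-parameter logistic model. Drug sensitivity score and relative IC50 come from these fits, with IC50 censored at the top concentration.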

HS-PSS [2] = test: as above
Procedure, shortened: as §1

HSC1 [3] = test: as above
Procedure, shortened: as §1

STS26T [4] = test: as above
Procedure, shortened: as §1

S462 = test: relative IC50 (inflection point of fitted dose-response curve, CellTiter-Glo viability, 72 h; top asymptote may be below 50% inhibition); higher = less potent
Procedure, shortened: (§2)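 For this screen, 384-well plates were preprinted with each compound at five concentrations in 10-fold steps and seeded with MPNST cell lines or primary human Schwann cells at 750–1000 cells per well. Incubation lasted 72 h at 37 °C, 5% CO2, and CellTiter-Glo ATP luminescence, scaled between vehicle and positive-control wells and averaged over duplicates where available, served as viability. Logistic fits with four parameters were applied. Relative IC50 (censored at the top concentration) and drug sensitivity score derive from these fits, and percent inhibition is at the top concentration.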

YST-1 = test: as above
Procedure, shortened: as §2

ST8814 [5] = test: as above
Procedure, shortened: as §2

HS-PSS [6] = test: as above
Procedure, shortened: as §2

HSC1 [7] = test: as above
Procedure, shortened: as §2

HSC2 [8] = test: as above
Procedure, shortened: as §2

S1507-2 = test: as above
Procedure, shortened: as §2

STS26T [9] = test: as above
Procedure, shortened: as §2

HS-Sch-2 = test: as above
Procedure, shortened: as §2

HSC2 [10] = test: relative IC50 (inflection point of fitted dose-response curve, CellTox-Green cytotoxicity, 72 h; top asymptote may be below 50%); higher = less potent
Procedure, shortened: as §1

| SMILES | relative IC50 (ST8814 [1]) [µM] | relative IC50 (HS-PSS [2]) [µM] | relative IC50 (HSC1 [3]) [µM] | relative IC50 (STS26T [4]) [µM] | relative IC50 (S462) [µM] | relative IC50 (YST-1) [µM] | relative IC50 (ST8814 [5]) [µM] | relative IC50 (HS-PSS [6]) [µM] | relative IC50 (HSC1 [7]) [µM] | relative IC50 (HSC2 [8]) [µM] | relative IC50 (S1507-2) [µM] | relative IC50 (STS26T [9]) [µM] | relative IC50 (HS-Sch-2) [µM] | relative IC50 (HSC2 [10]) [µM] |
| --- | --- | --- | --- | --- | --- | --- | --- | --- | --- | --- | --- | --- | --- | --- |
| CCn1c(-c2nonc2N)nc2cnc(Oc3cccc(NC(=O)c4ccc(OCCN5CCOCC5)cc4)c3)cc21 | > 10 | > 10 | 2.52 | 0.322 | 1.49 | 0.618 | 1.93 | 1.61 | 0.064 | 0.0514 | 1.48 | 0.775 | 0.988 |  |
| CN(c1ccccc1CNc1nc(Nc2ccc3c(c2)CC(=O)N3)ncc1C(F)(F)F)S(C)(=O)=O |  |  |  | 0.849 | 1.01 | 1.24 | 1.37 | 2.36 | 0.209 | 0.326 | 1.25 | 1.42 | 2.44 |  |
| O=C(O)c1ccc(-c2c[nH]c3ncc(-c4ccccc4)cc23)cc1C1CCCC1 | > 10 | > 10 | > 10 | > 10 | > 10 | > 10 | > 10 |  | > 10 |  | > 10 | > 10 | 2.98 | > 10 |
| Nc1ncnc2c1nc(Cl)n2[C@@H]1O[C@H](CO)[C@@H](O)[C@H]1O [8-chloro-adenosine] |  | > 50 | > 50 | 2.82 | 1.59 | 2.58 | 1.24 | 6.59 | 3.55 | 3.82 | 1.89 | 2.8 | 2.96 | > 50 |
| Nc1ncn([C@@H]2O[C@H](CO)[C@@H](O)[C@H]2O)c(=O)n1 [Azacitidine] | > 10 | > 10 | > 10 | > 10 | 2.58 |  |  |  | 2.34 | 3.32 | > 10 | 3.84 |  | > 10 |
| O=C(O)CCCCC(CCSCc1ccccc1)SCc1ccccc1 (stereo unspecified) [CPI-613] | > 10 | > 10 | > 10 | > 10 | > 10 |  | > 10 |  | > 10 | > 10 | > 10 | > 10 | > 10 | > 10 |
| O=NN(CCCl)C(=O)NCCCl [Carmustine] | > 10 | > 10 | > 10 | > 10 | > 10 | > 10 | > 10 |  | > 10 | > 10 | > 10 | > 10 | > 10 | > 10 |
| Nc1ccn([C@@H]2O[C@H](CO)[C@@H](O)[C@@H]2O)c(=O)n1 [Cytarabine] | 0.786 | 0.336 | 2.18 |  | 0.163 | 0.21 | 0.689 | 0.479 | 0.283 | 0.29 | 1.52 | 0.236 | 0.688 | 1.96 |
| Cc1nc(Nc2ncc(C(=O)Nc3c(C)cccc3Cl)s2)cc(N2CCN(CCO)CC2)n1 [Dasatinib] | 0.0294 | > 1 | > 1 | 0.052 | 0.0413 | 0.0168 | 0.0439 |  | 0.0487 | 0.0817 | 0.0538 | 0.0258 | 0.0849 | > 1 |
| CC(=O)N(O)CCCCCNC(=O)CCC(=O)N(O)CCCCCNC(=O)CCC(=O)N(O)CCCCCN [Deferoxamine aq] | 3.04 |  | > 10 | > 10 | 1.63 |  | 1.3 |  | 1.47 | 0.771 | 0.931 | 1.42 |  | > 10 |
| CO[C@H]1C[C@@H]2CC[C@@H](C)[C@@](O)(O2)C(=O)C(=O)N2CCCC[C@H]2C(=O)O[C@H]([C@H](C)C[C@@H]2CC[C@@H](OCCO)[C@H](OC)C2)CC(=O)[C@H](C)/C=C(\C)[C@@H](O)[C@@H](OC)C(=O)[C@H](C)C[C@H](C)/C=C/C=C/C=C/1C [Everolimus] | > 0.1 | > 0.1 | > 0.1 | > 0.1 | 0.000537 | 0.00594 | 0.00032 |  | 0.00012 | 0.000239 | 0.00146 | 0.00014 |  | > 0.1 |
| O=S(=O)(c1cccc2cnccc12)N1CCCNCC1 [Fasudil] | > 50 |  | > 50 | 20.2 | 16.1 | 16.5 |  | 19.8 | 13 | 16.6 | 19.7 | 17.6 | 16.7 | > 50 |
| CC(C)(C)NC(=O)[C@H]1CC[C@H]2[C@@H]3CC[C@H]4NC(=O)C=C[C@]4(C)[C@H]3CC[C@]12C [Finasteride] | > 10 | > 10 | > 10 | > 10 | > 10 | > 10 | > 10 | > 10 | > 10 | > 10 | > 10 |  | > 10 | > 10 |
| COc1cc2c(Oc3ccc(NC(=O)C4(C(=O)Nc5ccc(F)cc5)CC4)cc3F)ccnc2cc1OCCCN1CCOCC1 [Foretinib] | 0.288 |  | > 1 | 0.311 | 0.257 | 0.275 | 0.142 |  | 0.238 | 0.256 | 0.138 | 0.209 | 0.378 | > 1 |
| Cc1c(CN2CCN(C(=O)[C@H](C)O)CC2)sc2c(N3CCOCC3)nc(-c3cnc(N)nc3)nc12 [GDC-0980] | 2.88 |  | > 10 | > 10 | 0.617 |  | 1.06 |  | 0.636 | 0.469 | 0.447 | 0.486 |  | > 10 |
| CC(C)C[C@H](NC(=O)[C@@H](COC(C)(C)C)NC(=O)[C@H](Cc1ccc(O)cc1)NC(=O)[C@H](CO)NC(=O)[C@H](Cc1c[nH]c2ccccc12)NC(=O)[C@H](Cc1cnc[nH]1)NC(=O)[C@@H]1CCC(=O)N1)C(=O)N[C@@H](CCCNC(=N)N)C(=O)N1CCC[C@H]1C(=O)NNC(N)=O [Goserelin] | > 10 | > 10 | > 10 | > 10 | > 10 | > 10 | > 10 | > 10 | > 10 | > 10 | > 10 | > 10 |  | > 10 |
| NC(=O)c1ccc(I)c([N+](=O)[O-])c1 [Iniparib] | > 10 | > 10 | > 10 |  | > 10 | > 10 | > 10 | > 10 | > 10 | > 10 | > 10 | > 10 | > 10 | > 10 |
| C[C@]1(O)C[C@@H](c2nc(-c3ccc4ccc(-c5ccccc5)nc4c3)c3c(N)nccn32)C1 [Linsitinib] | > 10 | > 10 | > 10 | > 10 | 0.101 | 0.567 | > 10 | > 10 | 0.00391 | > 10 | 0.0207 |  | 0.77 | > 10 |
| CO[C@@]12[C@H](COC(N)=O)C3=C(C(=O)C(C)=C(N)C3=O)N1C[C@@H]1N[C@@H]12 [Mitomycin C] | 3.08 | > 10 | 2.87 | 2.85 | 3.69 | 2.19 | 3.76 |  | 3.33 | 3.65 | 3.79 | 3.59 | 3.95 | 1.05 |
| Clc1ccc(C(c2ccccc2Cl)C(Cl)Cl)cc1 (stereo unspecified) [Mitotane] | > 10 | > 10 | > 10 | > 10 | > 10 | > 10 |  | > 10 | > 10 | > 10 | > 10 | > 10 | > 10 | > 10 |
| N#CCNC(=O)c1ccc(-c2ccnc(Nc3ccc(N4CCOCC4)cc3)n2)cc1 [Momelotinib] | > 10 | > 10 | 3.37 |  | 2.74 | 1.3 | 1.97 | 2.5 | 1.41 | 1.33 | 3.76 | 3.11 | 1.64 | 3.22 |
| CC1(C)CNc2cc(NC(=O)c3cccnc3NCc3ccncc3)ccc21 [Motesanib] | > 10 | > 10 | > 10 | > 10 | > 10 |  | > 10 | > 10 | > 10 |  | > 10 | > 10 | > 10 | > 10 |
| Cc1ccc([N+](=O)[O-])cc1S(=O)(=O)N(C)/N=C/c1cnc2ccc(Br)cn12 [PIK-75] | 0.567 |  | 0.299 | 0.16 | 0.186 |  | 0.212 |  | 0.175 | 0.161 | 0.275 | 0.143 |  | 0.33 |
| Cn1cnc2c(F)c(Nc3ccc(Br)cc3Cl)c(C(=O)NOCCO)cc21 [Selumetinib] |  | > 10 | > 10 | > 10 | 0.736 | > 10 | 0.727 |  | 2.6 | 1.71 | 0.301 | 0.24 | 2.03 | > 10 |
| CN(N=O)C(=O)N[C@@H]1[C@@H](O)[C@H](O)[C@@H](CO)O[C@@H]1O [Streptozocin] | > 10 | > 10 | > 10 | > 10 | > 10 |  |  |  | > 10 | > 10 | > 10 | > 10 |  | > 10 |
| COc1cc2nccc(Oc3ccc(NC(=O)Nc4cc(C)on4)c(Cl)c3)c2cc1OC [Tivozanib] | 1.9 | > 10 |  | 1.89 | 0.828 | 2.26 | > 10 | 3.73 | 1.71 | 1.79 | 0.0189 | 1.87 | 3.87 | > 10 |
| CN1CCc2c(c3ccccc3n2Cc2ccc(C(=O)NO)cc2)C1 [Tubastatin A] | > 10 | > 10 | > 10 | 2.76 | 3.27 | 1.6 | 3.47 | 3.01 | 3.18 |  | 2.43 | 2.84 | 3.37 | > 10 |
